The subject of data set [1] is YAP1 phosphorylation at S127. In words: immunoblot analysis of Hippo signaling in CUTO9 cells. The class given is cell-based, human. The settings on record: 2 hours, brigatinib, lorlatinib 3 μM each, MRT67307 1 μM. On the technique in general: In western blotting, separated proteins are transferred to a membrane and probed.
A further data set deals with CUTO9 cells. In words: wound-healing assay in CUTO9 cells. The class given is cell-based, human. The settings on record: for suppression of cell migration (wound closure) / impact on wound closure: 24 hours; for inhibition at 1 µM: Homo sapiens, 24 h, read-out: inhibition of wound closure.
A further data set has as its system A549 NSCLC cells. In words: wound-healing assay in A549 cells. Particulars: for wound closure inhibition: A549 cells (no EML4-ALK, mutant KRAS), 48 hours.
Another data set deals with MARK2/3. In words: immunoblotting of cross-competition pulldowns. In kind it is binding, human. The settings on record: CUTO9 cells pre-treated with 2.5 μM TKI for 24 hours, immunoblot.
For data set [2] the following is noted: cited from earlier work.
A further data set relates to MARK3. The settings on record: read-out: previously reported in vitro IC50; cited from earlier work.
The subject of another data set is MARK2. Particulars: read-out: reported in vitro IC50; cited from earlier work.

As for `O=C(NCCCNc1nc(Nc2cccc(CN3CCOCC3)c2)ncc1C1CC1)C1CCC1` [MRT67307], in data set [1], the “phosphorylation of YAP1 at S127” value is listed as “induced phosphorylation of YAP1 at S127”. For the same molecule, the “reduction of cell migration” value with CUTO9 cells (CUTO9 cells, 1 μM) is listed as “approximately 25%”; in the data set with CUTO9 cells (CUTO9 cells, 3 μM), about 40%.
Take `CNC(=O)c1ccc(Nc2ncc(C(F)(F)F)c(NCc3nccnc3N(C)S(C)(=O)=O)n2)cc1` [defactinib]: the effects on migration result in the data set on CUTO9 cells (CUTO9 cells) was “minor, but notable effects”; with A549 NSCLC cells (A549 cells), “minor, but notable effects”.
Regarding `COc1cc(N2CCC(N3CCN(C)CC3)CC2)ccc1Nc1ncc(Cl)c(Nc2ccccc2P(C)(C)=O)n1` [brigatinib], the “phosphorylation of YAP1 at S127” value in data set [1] is recorded as “induced phosphorylation of YAP1 at S127”. For the same molecule, in the data set with MARK2/3, the “competition for binding of MARK2/3 to i-brigatinib beads” value was “more completely competed”. Also, the “suppression of cell migration (wound closure)” value with CUTO9 cells (CUTO9 cells, 3 μM) was “approximately 70%”. In the data set on CUTO9 cells, the inhibition at 1 µM was about 40%. Also, the “competition for EML4-ALK” value in the data set on EML4-ALK is reported as “strongest extent of competition”. In addition, in data set [2] (clinical), the “reported clinically relevant concentration” value was 2.9 µM. Further, in data set [2] (read-out: plasma Cmax, reported, no reference given), the Cmax was 2.5 µM. The half-inhibitory concentration (IC50) is 0.127 µM in the data set on MARK3 and 0.093 µM in the data set on MARK2. In addition, in the data set with A549 NSCLC cells, the wound closure inhibition entry is “wound closure inhibition observed”.
Turning to `CCc1cc2c(cc1N1CCC(N3CCOCC3)CC1)C(C)(C)c1[nH]c3cc(C#N)ccc3c1C2=O` [alectinib], the “competition for binding of MARK2/3 to i-brigatinib beads” value in the data set on MARK2/3 was “more completely competed”. The “suppression of cell migration (wound closure)” value in the data set on CUTO9 cells (CUTO9 cells, 3 μM) is reported as about 45%. For the same molecule, in the data set with CUTO9 cells, the inhibition at 1 µM was about 30%. For the same molecule, the wound closure inhibition result in the data set on A549 NSCLC cells is given as “wound closure inhibition observed”.
Turning to `C[C@@H](Oc1cc(-c2cnn(C3CCNCC3)c2)cnc1N)c1c(Cl)ccc(F)c1Cl` [crizotinib], the “impact on wound closure” value with CUTO9 cells (CUTO9 cells) is recorded as “no impact on wound closure”.
As to `C[C@H]1Oc2cc(cnc2N)-c2c(nn(C)c2C#N)CN(C)C(=O)c2ccc(F)cc21` [lorlatinib], in data set [1], the “phosphorylation of YAP1 at S127” value is on record as “not observed”. In addition, the “impact on wound closure” value in the data set on CUTO9 cells (CUTO9 cells) is on record as “no impact on wound closure”.

By inhibition is commonly meant the relative decrease from the control value, in per cent. As a reminder, the Cmax is the peak of the concentration-time curve. By IC50 is commonly meant the concentration that gives 50% inhibition.
